Laboratory results as given in PubChem BioAssay (NCI).
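Abbreviation: GI50, concentration required for 50% inhibition of growth. At the TGI there is no net growth.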

Tests used:
Assay in all cases: NCI anticancer screen, dose series, 384-well format
[1] = tested on: T-47D breast
[2] = tested on: NCI-H522 lung
[3] = tested on: A498 renal
[4] = tested on: KM12 colon
[5] = tested on: MDA-MB-231 breast
[6] = tested on: EKVX NSCLC
[7] = tested on: HCT-15 colon
[8] = tested on: SNB-75 CNS
[9] = tested on: UACC-257 melanoma
[10] = tested on: HS 578T breast
[11] = tested on: NCI-H23 lung
[12] = tested on: SK-MEL-2 melanoma
[13] = tested on: HCT-116 colon
[14] = tested on: SNB-19 CNS
[15] = tested on: SN12C renal
[16] = tested on: UO-31 renal
[17] = tested on: NCI-H322M lung
[18] = tested on: RXF 393 renal
[19] = tested on: UACC-62 melanoma
[20] = tested on: M14 melanoma
[21] = tested on: IGROV1 ovarian
[22] = tested on: OVCAR-4 ovarian
[23] = tested on: OVCAR-3 ovarian
[24] = tested on: HL-60(TB) leukemia
[25] = tested on: SR leukemia
[26] = tested on: OVCAR-5 ovarian
[27] = tested on: MOLT-4 leukemia
[28] = tested on: HOP-62 NSCLC
[29] = tested on: SK-MEL-5 melanoma
[30] = tested on: NCI-H226 lung
[31] = tested on: BT-549 breast
[32] = tested on: SF-295 CNS
[33] = tested on: SF-268 CNS
[34] = tested on: ACHN renal
[35] = tested on: MDA-MB-435 melanoma
[36] = tested on: TK-10 renal
[37] = tested on: CAKI-1 renal
[38] = tested on: PC-3 prostate
[39] = tested on: K-562 leukemia
[40] = tested on: SW-620 colon
[41] = tested on: SK-MEL-28 melanoma
[42] = tested on: U251 glioblastoma
[43] = tested on: MDA-MB-468 breast
[44] = tested on: HT29 colon
[45] = tested on: SK-OV-3 ovarian
[46] = tested on: OVCAR-8 ovarian
[47] = tested on: HOP-92 NSCLC
[48] = tested on: 786-0 renal
[49] = tested on: NCI-H460 NSCLC
[50] = tested on: MALME-3M melanoma
[51] = tested on: DU-145 prostate
[52] = tested on: COLO 205 colon
[53] = tested on: SF-539 CNS

In the case of Nc1nn2cc(F)cnc2c1C(=O)Nc1cncc(F)c1N1CCC(C(=O)N2CCN(C3COC3)CC2)CC1, the GI50 [1] is reported as 4730 nM, the TGI [1] is reported as > 100000 nM and the GI50 [2] is reported as 183 nM. For the same compound, the TGI [2] was 735 nM, the GI50 [3] was 34.5 nM and the TGI [3] was 207 nM. The GI50 [4] was 32.7 nM, the TGI [4] was 727 nM and the GI50 [5] was 789 nM. The TGI [5] was > 100000 nM, the GI50 [6] was 132 nM and the TGI [6] was 615 nM. It also gave a GI50 [7] of 34.7 nM, a TGI [7] of 208 nM and a GI50 [8] of 219 nM. The TGI [8] was 1990 nM, the GI50 [9] was 332 nM and the TGI [9] was 1890 nM. For the same compound, the GI50 [10] was 13 nM, the TGI [10] was 42.2 nM and the GI50 [11] was 16.9 nM. The TGI [11] was 55.2 nM, the GI50 [12] was 24.1 nM and the TGI [12] was 80.2 nM. It also gave a GI50 [13] of 92.9 nM, a TGI [13] of 1750 nM and a GI50 [14] of 407 nM. The TGI [14] was 4350 nM, the GI50 [15] was 376 nM and the TGI [15] was 2930 nM. The GI50 [16] was 194 nM, the TGI [16] was 717 nM and the GI50 [17] was 33.9 nM. It also gave a TGI [17] of 306 nM, a GI50 [18] of 16 nM and a TGI [18] of 53.2 nM. It also gave a GI50 [19] of 223 nM, a TGI [19] of 1570 nM and a GI50 [20] of 35 nM. For the same compound, the TGI [20] was 378 nM, the GI50 [21] was 170 nM and the TGI [21] was 1540 nM. The GI50 [22] was 62.5 nM, the TGI [22] was 2440 nM and the GI50 [23] was 215 nM. It also gave a TGI [23] of 1420 nM, a GI50 [24] of 37.4 nM and a TGI [24] of 83.8 nM. The TGI [25] was 22.1 nM, the GI50 [26] was 543 nM and the TGI [26] was > 100000 nM. For the same compound, the TGI [27] was 11.8 nM, the GI50 [28] was 21.4 nM and the TGI [28] was 218 nM. The GI50 [29] was 98.6 nM, the TGI [29] was 334 nM and the GI50 [30] was 327 nM. It also gave a TGI [30] of 2240 nM, a GI50 [31] of 24.5 nM and a TGI [31] of 84.4 nM. The GI50 [32] was 31.5 nM, the TGI [32] was 171 nM and the GI50 [33] was 77.6 nM. For the same compound, the TGI [33] was 1740 nM, the GI50 [34] was 46.9 nM and the TGI [34] was 251 nM. The GI50 [35] was 35.7 nM, the TGI [35] was 308 nM and the GI50 [36] was 29.9 nM. The TGI [36] was 231 nM, the GI50 [37] was 185 nM and the TGI [37] was 1470 nM. For the same compound, the GI50 [38] was 296 nM, the TGI [38] was 2820 nM and the GI50 [39] was 48.2 nM. The TGI [39] was 179 nM, the GI50 [40] was 227 nM and the TGI [40] was > 100000 nM. For the same compound, the GI50 [41] was 2040 nM, the TGI [41] was > 100000 nM and the GI50 [42] was 141 nM. For the same compound, the TGI [42] was 1170 nM, the GI50 [43] was 29.4 nM and the TGI [43] was 324 nM. For the same compound, the GI50 [44] was 302 nM, the TGI [44] was > 100000 nM and the GI50 [45] was 57.3 nM. It also gave a TGI [45] of 264 nM, a GI50 [46] of 174 nM and a TGI [46] of 558 nM. The GI50 [47] was 47.9 nM, the TGI [47] was 539 nM and the GI50 [48] was 103 nM. The TGI [48] was 323 nM, the GI50 [49] was 20.8 nM and the TGI [49] was 156 nM. The GI50 [50] was 18.8 nM, the TGI [50] was 53.2 nM and the GI50 [51] was 70.5 nM. For the same compound, the TGI [51] was 954 nM, the GI50 [52] was 218 nM and the TGI [52] was 2090 nM. It also gave a GI50 [53] of 33 nM and a TGI [53] of 149 nM.
